Data published in the NIST ThermoML archive (doi:10.1016/j.jct.2012.05.012).

What was measured:
[1] = for mass density: 101 kPa, Buoyancy - hydrostatic balance; for mass density / surface tension liquid-gas: Liquid; for surface tension liquid-gas: Maximal bubble pressure
[2] = refractive index (Na D-line) (dimensionless); conditions: 101 kPa, Liquid, Standard Abbe refractometry

CCCCn1cc[n+](C)c1.NCC(=O)[O-] [1-butyl-3-methylimidazolium glycinate]
Conditions | mass density, [1] [kg/m3] | refractive index, [2] | surface tension liquid-gas, [1] [mN/m]
283.15 K | 1120.6 | – | 44.3
288.15 K | 1117.4 | – | 44
293.15 K | 1114.2 | 1.5091 | 43.8
298.15 K | 1110.9 | 1.5085 | 43.5
303.15 K | 1107.8 | 1.5068 | 43.2
308.15 K | 1104.7 | 1.5049 | 42.9
313.15 K | 1101.6 | 1.5038 | 42.6
318.15 K | 1098.6 | 1.5029 | 42.2
323.15 K | 1095.5 | 1.5019 | 41.8
328.15 K | 1092.3 | – | 41.5

Conditions | Glass transition temperature [°C]
[1], Glass, DTA | -81.80
